# Assay results: PubChem BioAssay (NCI)
#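 Test compounds were applied to cells in 96-well plates for 48 hours at 5 doses. At the TGI there is no net growth.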
# How the values were obtained:
# Experiment in all cases: growth of human tumour cells (NCI), 48 h
# 786-0 renal = system: 786-0 renal
# A498 renal = system: A498 renal
# A549 NSCLC = system: A549 NSCLC
# ACHN renal = system: ACHN renal
# BT-549 breast = system: BT-549 breast
# CAKI-1 renal = system: CAKI-1 renal
# CCRF-CEM leukemia = system: CCRF-CEM leukemia
# COLO 205 colon = system: COLO 205 colon
# DU-145 prostate = system: DU-145 prostate
# EKVX NSCLC = system: EKVX NSCLC
# HCC-2998 colon = system: HCC-2998 colon
# HCT-116 colon = system: HCT-116 colon
# HCT-15 colon = system: HCT-15 colon
# HL-60(TB) leukemia = system: HL-60(TB) leukemia
# HOP-62 NSCLC = system: HOP-62 NSCLC
# HOP-92 NSCLC = system: HOP-92 NSCLC
# HS 578T breast = system: HS 578T breast
# HT29 colon = system: HT29 colon
# IGROV1 ovarian = system: IGROV1 ovarian
# K-562 leukemia = system: K-562 leukemia
# KM12 colon = system: KM12 colon
# LOX IMVI melanoma = system: LOX IMVI melanoma
# M14 melanoma = system: M14 melanoma
# MALME-3M melanoma = system: MALME-3M melanoma
# MCF7 breast = system: MCF7 breast
# MDA-MB-231 breast = system: MDA-MB-231 breast
# MDA-MB-435 = system: MDA-MB-435
# MDA-N = system: MDA-N
# MOLT-4 leukemia = system: MOLT-4 leukemia
# NCI-H226 lung = system: NCI-H226 lung
# NCI-H23 lung = system: NCI-H23 lung
# NCI-H460 lung = system: NCI-H460 lung
# NCI-H522 lung = system: NCI-H522 lung
# NCI/ADR-RES ovarian = system: NCI/ADR-RES ovarian
# OVCAR-3 ovarian = system: OVCAR-3 ovarian
# OVCAR-4 ovarian = system: OVCAR-4 ovarian
# OVCAR-5 ovarian = system: OVCAR-5 ovarian
# OVCAR-8 ovarian = system: OVCAR-8 ovarian
# PC-3 prostate = system: PC-3 prostate
# RPMI-8226 leukemia = system: RPMI-8226 leukemia
# SF-268 CNS = system: SF-268 CNS
# SF-295 CNS = system: SF-295 CNS
# SF-539 CNS = system: SF-539 CNS
# SK-MEL-2 melanoma = system: SK-MEL-2 melanoma
# SK-MEL-28 melanoma = system: SK-MEL-28 melanoma
# SK-MEL-5 melanoma = system: SK-MEL-5 melanoma
# SK-OV-3 ovarian = system: SK-OV-3 ovarian
# SN12C renal = system: SN12C renal
# SNB-19 CNS = system: SNB-19 CNS
# SNB-75 CNS = system: SNB-75 CNS
# SR leukemia = system: SR leukemia
# SW-620 colon = system: SW-620 colon
# T-47D breast = system: T-47D breast
# TK-10 renal = system: TK-10 renal
# U251 CNS = system: U251 CNS
# UACC-257 melanoma = system: UACC-257 melanoma
# UACC-62 melanoma = system: UACC-62 melanoma
# UO-31 renal = system: UO-31 renal
# RXF 393 renal = system: RXF 393 renal
smiles,measurement,setting,value
Cc1cc(O)c2c(c1)C(=O)C=C(Br)C2=O,TGI,786-0 renal,31.3 µM
same,TGI,A498 renal,38.2 µM
same,TGI,A549 NSCLC,> 60.5 µM
same,TGI,ACHN renal,29.3 µM
same,TGI,BT-549 breast,30.6 µM
same,TGI,CAKI-1 renal,27.7 µM
same,TGI,CCRF-CEM leukemia,4.1 µM
same,TGI,COLO 205 colon,19.2 µM
same,TGI,DU-145 prostate,17 µM
same,TGI,EKVX NSCLC,> 61.2 µM
same,TGI,HCC-2998 colon,> 58.1 µM
same,TGI,HCT-116 colon,30.8 µM
same,TGI,HCT-15 colon,27.4 µM
same,TGI,HL-60(TB) leukemia,1.71 µM
same,TGI,HOP-62 NSCLC,> 100 µM
same,TGI,HOP-92 NSCLC,27 µM
same,TGI,HS 578T breast,35.6 µM
same,TGI,HT29 colon,40.3 µM
same,TGI,IGROV1 ovarian,> 60.2 µM
same,TGI,K-562 leukemia,3.38 µM
same,TGI,KM12 colon,> 55.8 µM
same,TGI,LOX IMVI melanoma,25.4 µM
same,TGI,M14 melanoma,29.5 µM
same,TGI,MALME-3M melanoma,17.2 µM
same,TGI,MCF7 breast,23.4 µM
same,TGI,MDA-MB-231 breast,33.8 µM
same,TGI,MDA-MB-435,27.6 µM
same,TGI,MDA-N,28.7 µM
same,TGI,MOLT-4 leukemia,4.45 µM
same,TGI,NCI-H226 lung,34.8 µM
same,TGI,NCI-H23 lung,35.5 µM
same,TGI,NCI-H460 lung,45.9 µM
same,TGI,NCI-H522 lung,7.34 µM
same,TGI,NCI/ADR-RES ovarian,43.1 µM
same,TGI,OVCAR-3 ovarian,30.6 µM
same,TGI,OVCAR-4 ovarian,24 µM
same,TGI,OVCAR-5 ovarian,29.7 µM
same,TGI,OVCAR-8 ovarian,42.3 µM
same,TGI,PC-3 prostate,31.8 µM
same,TGI,RPMI-8226 leukemia,23 µM
same,TGI,SF-268 CNS,98.9 µM
same,TGI,SF-295 CNS,> 60.5 µM
same,TGI,SF-539 CNS,29.8 µM
same,TGI,SK-MEL-2 melanoma,31.2 µM
same,TGI,SK-MEL-28 melanoma,29.7 µM
same,TGI,SK-MEL-5 melanoma,27.4 µM
same,TGI,SK-OV-3 ovarian,> 100 µM
same,TGI,SN12C renal,31 µM
same,TGI,SNB-19 CNS,> 100 µM
same,TGI,SNB-75 CNS,31 µM
same,TGI,SR leukemia,42 µM
same,TGI,SW-620 colon,12.2 µM
same,TGI,T-47D breast,14.9 µM
same,TGI,TK-10 renal,30.1 µM
same,TGI,U251 CNS,95.1 µM
same,TGI,UACC-257 melanoma,26.5 µM
same,TGI,UACC-62 melanoma,32.4 µM
same,TGI,UO-31 renal,28.9 µM
C=CCN1C(=O)/C(=C/c2ccccc2)N=C1SC1OC(COC(C)=O)C(OC(C)=O)C(OC(C)=O)C1OC(C)=O (configuration not stated),TGI,786-0 renal,> 100 µM
same,TGI,A498 renal,99.7 µM
same,TGI,A549 NSCLC,> 100 µM
same,TGI,ACHN renal,64.6 µM
same,TGI,BT-549 breast,65.5 µM
same,TGI,CAKI-1 renal,53.8 µM
same,TGI,CCRF-CEM leukemia,> 100 µM
same,TGI,DU-145 prostate,71.6 µM
same,TGI,EKVX NSCLC,63.7 µM
same,TGI,HCC-2998 colon,> 100 µM
same,TGI,HCT-116 colon,83 µM
same,TGI,HCT-15 colon,> 100 µM
same,TGI,HL-60(TB) leukemia,60.6 µM
same,TGI,HOP-62 NSCLC,> 100 µM
same,TGI,HOP-92 NSCLC,76.6 µM
same,TGI,HS 578T breast,72.2 µM
same,TGI,HT29 colon,> 100 µM
same,TGI,IGROV1 ovarian,91.1 µM
same,TGI,K-562 leukemia,> 100 µM
same,TGI,KM12 colon,> 100 µM
same,TGI,LOX IMVI melanoma,> 100 µM
same,TGI,M14 melanoma,> 100 µM
same,TGI,MALME-3M melanoma,62.4 µM
same,TGI,MCF7 breast,> 100 µM
same,TGI,MDA-MB-231 breast,47.7 µM
same,TGI,MDA-MB-435,> 100 µM
same,TGI,MDA-N,> 100 µM
same,TGI,MOLT-4 leukemia,> 100 µM
same,TGI,NCI-H23 lung,87.6 µM
same,TGI,NCI-H460 lung,> 100 µM
same,TGI,NCI-H522 lung,55.4 µM
same,TGI,NCI/ADR-RES ovarian,69.4 µM
same,TGI,OVCAR-3 ovarian,45.8 µM
same,TGI,OVCAR-4 ovarian,> 100 µM
same,TGI,OVCAR-5 ovarian,> 100 µM
same,TGI,OVCAR-8 ovarian,95.5 µM
same,TGI,PC-3 prostate,52.9 µM
same,TGI,RPMI-8226 leukemia,> 100 µM
same,TGI,RXF 393 renal,36.6 µM
same,TGI,SF-268 CNS,53.4 µM
same,TGI,SF-295 CNS,> 100 µM
same,TGI,SK-MEL-2 melanoma,48.8 µM
same,TGI,SK-MEL-28 melanoma,76.6 µM
same,TGI,SK-OV-3 ovarian,> 100 µM
same,TGI,SN12C renal,71.3 µM
same,TGI,SNB-19 CNS,> 100 µM
same,TGI,SNB-75 CNS,67.8 µM
same,TGI,SR leukemia,> 100 µM
same,TGI,SW-620 colon,> 100 µM
same,TGI,T-47D breast,> 100 µM
same,TGI,TK-10 renal,> 100 µM
same,TGI,U251 CNS,58.9 µM
same,TGI,UACC-257 melanoma,> 100 µM
same,TGI,UACC-62 melanoma,52.4 µM
